One block for each compound: values may come before it.
Assays:
Coffea = assay: Inhibition of coffee bean alpha-galactosidase at 1000 uM using p-nitrophenyl-glycoside as substrate by spectrophotometric method
[1] = Inhibition of Helix pomatia beta-mannosidase using p-nitrophenyl-glycoside as substrate by spectrophotometric method
Penicillium decumbens [2] = assay: Inhibition of Penicillium decumbens alpha-L-rhamnosidase at 1000 uM using p-nitrophenyl-glycoside as substrate by spectrophotometric method
Escherichia coli = assay: Inhibition of Escherichia coli beta-galactosidase at 1000 uM using p-nitrophenyl-glycoside as substrate by spectrophotometric method
[3] = Inhibition of bovine liver beta-glucosidase using p-nitrophenyl-glycoside as substrate by spectrophotometric method; parameters: species or system Bos taurus
[4] = Inhibition of Aspergillus niger amyloglucosidase assessed as D-glucose level using maltose as substrate measured after 10 to 30 mins
[5] = molecular target: T1, Alpha-mannosidase (Canavalia ensiformis) (UniProt C0HJB3); assay: Inhibition of Jack bean alpha-mannosidase at 1000 uM preincubated for 45 mins followed by addition of p-nitrophenyl-glycoside as substrate measured after 30 mins by fluorescence spectrophometry
T1 sequence (whole entry): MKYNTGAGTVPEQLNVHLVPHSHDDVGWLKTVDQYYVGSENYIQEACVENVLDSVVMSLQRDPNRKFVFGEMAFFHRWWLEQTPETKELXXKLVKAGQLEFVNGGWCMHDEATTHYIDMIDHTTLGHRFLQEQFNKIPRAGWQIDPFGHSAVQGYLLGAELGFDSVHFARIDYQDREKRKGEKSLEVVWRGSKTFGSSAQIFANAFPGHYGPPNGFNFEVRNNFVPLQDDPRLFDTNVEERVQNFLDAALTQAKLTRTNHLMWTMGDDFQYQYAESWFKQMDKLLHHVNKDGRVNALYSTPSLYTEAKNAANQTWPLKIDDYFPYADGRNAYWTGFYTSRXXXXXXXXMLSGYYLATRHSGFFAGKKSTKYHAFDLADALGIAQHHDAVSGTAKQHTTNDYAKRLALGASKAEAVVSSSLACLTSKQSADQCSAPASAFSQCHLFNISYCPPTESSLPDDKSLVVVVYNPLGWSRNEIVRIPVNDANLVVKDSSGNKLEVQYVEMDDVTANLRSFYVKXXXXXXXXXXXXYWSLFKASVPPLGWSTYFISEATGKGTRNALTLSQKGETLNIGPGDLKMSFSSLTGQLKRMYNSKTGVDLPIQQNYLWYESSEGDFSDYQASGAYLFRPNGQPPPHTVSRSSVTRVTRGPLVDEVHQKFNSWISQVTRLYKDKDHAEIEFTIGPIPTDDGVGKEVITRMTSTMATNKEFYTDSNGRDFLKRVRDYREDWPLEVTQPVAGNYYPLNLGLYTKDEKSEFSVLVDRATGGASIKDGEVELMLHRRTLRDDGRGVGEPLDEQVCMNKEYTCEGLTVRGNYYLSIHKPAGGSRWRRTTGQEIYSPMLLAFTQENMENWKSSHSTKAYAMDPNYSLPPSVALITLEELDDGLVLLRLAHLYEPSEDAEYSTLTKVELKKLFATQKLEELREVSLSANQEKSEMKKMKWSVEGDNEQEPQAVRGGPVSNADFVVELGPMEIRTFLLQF

Homo sapiens = species on record: Homo sapiens; assay: Inhibition of human lysosomal beta-glucosidase at 1000 uM using 4-methylumbelliferyl-beta-D-glucopyranoside as substrate preincubated for 45 mins followed by substrate addition measured after 30 mins by fluorescence spectrophotometric method
[6] = Inhibition of yeast alpha-glucosidase using p-nitrophenyl-glycoside as substrate by spectrophotometric method; parameters: species or system Saccharomyces cerevisiae
[7] = Inhibition of almond beta-glucosidase using p-nitrophenyl-glycoside as substrate by spectrophotometric method; parameters: species or system Prunus dulcis
Penicillium decumbens [8] = assay: Inhibition of Penicillium decumbens alpha-L-rhamnosidase at 1000 uM relative to control
Penicillium decumbens [9] = assay: Inhibition of Penicillium decumbens alpha-L-rhamnosidase at 750 uM relative to control

inhibition (Coffea): < 50% | IC50 [1]: 721 µM | inhibition (Penicillium decumbens [2]): < 50% | inhibition (Escherichia coli): < 50% | IC50 [3]: 9.7 µM | IC50 [4]: 116 µM | inhibition [5]: < 50% | inhibition (Homo sapiens): < 50% | IC50 [6]: 7.8 µM | IC50 [7]: 10 µM
SMILES: OC[C@H]1N[C@H](CO)[C@@H](O)[C@@H]1O

inhibition (Penicillium decumbens [8]): < 50%
SMILES: OC[C@@H]1NC[C@H](O)[C@@H]1O

inhibition (Penicillium decumbens [9]): < 50%
SMILES: C[C@@H]1NC[C@H](O)[C@H](O)[C@H]1O

Source: ChEMBL document CHEMBL3868599, “Strategy for designing selective α-l-rhamnosidase inhibitors: Synthesis and biological evaluation of l-DMDP cyclic isothioureas” (Bioorg Med Chem, 2017)
